Test results from patent US5840684A, “Glycopeptide antibiotic derivatives” (Eli Lilly and Company, priority 1995, dated 1998).
≈ marks a conversion by molar mass, not a printed value.

How the values were obtained:
[1] = test system: Staphylococcus aureus S13E; format: cell-based
Description: (§1) The MIC's were determined using a standard broth micro-dilution assay.

[2] = test system: Staphylococcus aureus SA1199B; format: cell-based
Description: as §1

[3] = test system: Entercoccus faecium 180-1; experiment: broth micro-dilution MIC; format: cell-based
Description: as §1

Entercoccus faecium 276 = experiment: broth micro-dilution MIC; format: cell-based
Description: as §1

[4] = test system: Staphylococcus aureus 446; experiment: broth micro-dilution MIC; format: cell-based
Description: as §1

[5] = test system: Staphylococcus aureus 447; experiment: broth micro-dilution MIC; format: cell-based
Description: as §1

[6] = test system: Staphylococcus aureus 489; experiment: broth micro-dilution MIC; format: cell-based
Description: as §1

[7] = test system: Staphylococcus aureus 491; experiment: broth micro-dilution MIC; format: cell-based
Description: as §1

[8] = test system: Staphylococcus aureus SA1199A; experiment: broth micro-dilution MIC; format: cell-based
Description: as §1

[9] = test system: Staphylococcus aureus SA1199; experiment: broth micro-dilution MIC; format: cell-based
Description: as §1

[10] = test system: Staphylococcus aureus X400; experiment: broth micro-dilution MIC; format: cell-based
Description: as §1

[11] = test system: Staphylococcus aureus X778; experiment: broth micro-dilution MIC; format: cell-based
Description: as §1

Entercoccus faecium 180 = experiment: broth micro-dilution MIC; format: cell-based; conditions: Entercoccus faecium 180
Description: (§2) The formula I compounds have in vitro and in vivo activity against Gram-positive pathogenic bacteria. The MIC's were determined using a standard broth micro-dilution assay.

Entercoccus faecium 2041 = experiment: broth micro-dilution MIC; format: cell-based; conditions: Entercoccus faecium 2041
Description: as §2

[12] = test system: Enterococcus gallinarum 245; experiment: broth micro-dilution MIC; format: cell-based; conditions: Enterococcus gallinarum 245
Description: as §2

[13] = test system: Staphylococcus epidermidis 270; experiment: broth micro-dilution MIC; format: cell-based
Description: as §2

[14] = test system: Staphylococcus haemolyticus 105; experiment: broth micro-dilution MIC; format: cell-based
Description: as §2

[15] = test system: Staphylococcus haemolyticus 415; experiment: broth micro-dilution MIC; format: cell-based
Description: as §2

[16] = test system: vancomycin-resistant enterococci; experiment: broth micro-dilution, mean geometric MIC; format: cell-based, Enterococcus faecium and Enterococcus faecalis; conditions: enterococci, 24-hour incubation
[17] = test system: vancomycin-susceptible enterococci; experiment: broth micro-dilution, mean geometric MIC; format: cell-based, Enterococcus faecium and Enterococcus faecalis; conditions: enterococci, 24-hour incubation
[18] = test system: Streptococcus pyogenes C203; experiment: broth micro-dilution MIC; format: cell-based
Description: as §1

[19] = test system: Streptococcus pneumoniae P1; experiment: broth micro-dilution MIC; format: cell-based
Description: as §2

Structure (SMILES) | MIC [1] [µg/mL] | MIC [2] [µg/mL] | MIC [3] [µg/mL] | MIC (Entercoccus faecium 276) [µg/mL] | MIC [4] [µg/mL] | MIC [5] [µg/mL] | MIC [6] [µg/mL] | MIC [7] [µg/mL] | MIC [9] [µg/mL] | MIC [10] [µg/mL] | MIC [11] [µg/mL] | MIC (Entercoccus faecium 180) [µg/mL] | MIC (Entercoccus faecium 2041) [µg/mL] | MIC [12] [µg/mL] | MIC [13] [µg/mL] | MIC [14] [µg/mL] | MIC [15] [µg/mL] | mean geometric MIC, Vancomycin Resistant Strains [16] [µg/mL] | mean geometric MIC, Vancomycin Sensitive Strains [17] [µg/mL] | MIC [19] [µg/mL] | other results
CNC(CC(C)C)C(=O)NC1C(=O)NC(CC(N)=O)C(=O)NC2C(=O)NC3C(=O)NC(C(=O)NC(C(=O)O)c4cc(O)cc(O)c4-c4cc3ccc4O)C(OC3CC(C)(N)C(O)C(C)O3)c3ccc(c(Cl)c3)Oc3cc2cc(c3OC2OC(CO)C(O)C(O)C2OC2CC(C)(NCCCCCCCCCCCCc3ccccc3)C(O)C(C)O2)Oc2ccc(cc2Cl)C1O (centres unmarked) [Compound 234] | 8 (≈ 4.36 µM) | 8 (≈ 4.36 µM) | 1 (≈ 0.544 µM) | 4 (≈ 2.18 µM) | 4 (≈ 2.18 µM) | 8 (≈ 4.36 µM) | 4 (≈ 2.18 µM) | 8 (≈ 4.36 µM) | 8 (≈ 4.36 µM) | 8 (≈ 4.36 µM) | 4 (≈ 2.18 µM) | 1 (≈ 0.544 µM) | 0.5 (≈ 0.272 µM) | 16 (≈ 8.71 µM) | 4 (≈ 2.18 µM) | 8 (≈ 4.36 µM) | 16 (≈ 8.71 µM) | 2 | 2 | – | MIC [8]: 2 µg/mL (≈ 1.09 µM)
CNC(CC(C)C)C(=O)NC1C(=O)NC(CC(N)=O)C(=O)NC2C(=O)NC3C(=O)NC(C(=O)NC(C(=O)O)c4cc(O)cc(O)c4-c4cc3ccc4O)C(OC3CC(C)(N)C(O)C(C)O3)c3ccc(c(Cl)c3)Oc3cc2cc(c3OC2OC(CO)C(O)C(O)C2OC2CC(C)(NCc3ccc(OCCOC(C)(C)C)cc3)C(O)C(C)O2)Oc2ccc(cc2Cl)C1O (centres unmarked) [Compound 154] | 0.25 (≈ 0.139 µM) | 0.25 (≈ 0.139 µM) | ≤ 0.06 | 0.5 (≈ 0.278 µM) | 2 (≈ 1.11 µM) | 2 (≈ 1.11 µM) | 1 (≈ 0.556 µM) | 0.5 (≈ 0.278 µM) | 2 (≈ 1.11 µM) | 2 (≈ 1.11 µM) | 0.5 (≈ 0.278 µM) | 1 (≈ 0.556 µM) | – | 4 (≈ 2.22 µM) | 0.5 (≈ 0.278 µM) | 4 (≈ 2.22 µM) | 4 (≈ 2.22 µM) | 2.8 | 0.072 | ≤ 0.06 | MIC [18]: ≤ 0.06 µg/mL
CCCCCCCCC#CCCCCCCNC1(C)CC(OC2C(Oc3c4cc5cc3Oc3ccc(cc3Cl)C(OC3CC(C)(N)C(O)C(C)O3)C3NC(=O)C(NC(=O)C5NC(=O)C(CC(N)=O)NC(=O)C(NC(=O)C(CC(C)C)NC)C(O)c5ccc(c(Cl)c5)O4)c4ccc(O)c(c4)-c4c(O)cc(O)cc4C(C(=O)O)NC3=O)OC(CO)C(O)C2O)OC(C)C1O (centres unmarked) [Compound 207] | 8 (≈ 4.41 µM) | 16 (≈ 8.83 µM) | ≤ 0.06 | 0.25 (≈ 0.138 µM) | 8 (≈ 4.41 µM) | 8 (≈ 4.41 µM) | 4 (≈ 2.21 µM) | 1 (≈ 0.552 µM) | 8 (≈ 4.41 µM) | 8 (≈ 4.41 µM) | 8 (≈ 4.41 µM) | 1 (≈ 0.552 µM) | 0.125 (≈ 0.069 µM) | 1 (≈ 0.552 µM) | 8 (≈ 4.41 µM) | 8 (≈ 4.41 µM) | 1 (≈ 0.552 µM) | 1.2 | 0.50 | ≤ 0.06 | MIC [8]: 4 µg/mL (≈ 2.21 µM)
CNC(CC(C)C)C(=O)NC1C(=O)NC(CC(N)=O)C(=O)NC2C(=O)NC3C(=O)NC(C(=O)NC(C(=O)O)c4cc(O)cc(O)c4-c4cc3ccc4O)C(OC3CC(C)(N)C(O)C(C)O3)c3ccc(c(Cl)c3)Oc3cc2cc(c3OC2OC(CO)C(O)C(O)C2OC2CC(C)(NCc3ccc(-c4ccc(C)cc4)c(C)c3)C(O)C(C)O2)Oc2ccc(cc2Cl)C1O (centres unmarked) [Compound 225] | 1 (≈ 0.56 µM) | 2 (≈ 1.12 µM) | ≤ 0.06 | – | 1 (≈ 0.56 µM) | 1 (≈ 0.56 µM) | 2 (≈ 1.12 µM) | 1 (≈ 0.56 µM) | 1 (≈ 0.56 µM) | 1 (≈ 0.56 µM) | 0.5 (≈ 0.28 µM) | ≤ 0.06 | 0.125 (≈ 0.07 µM) | 4 (≈ 2.24 µM) | 1 (≈ 0.56 µM) | 0.5 (≈ 0.28 µM) | 4 (≈ 2.24 µM) | 0.63 | 0.072 | ≤ 0.06 | MIC [18]: ≤ 0.06 µg/mL
CNC(CC(C)C)C(=O)NC1C(=O)NC(CC(N)=O)C(=O)NC2C(=O)NC3C(=O)NC(C(=O)NC(C(=O)O)c4cc(O)cc(O)c4-c4cc3ccc4O)C(OC3CC(C)(N)C(O)C(C)O3)c3ccc(c(Cl)c3)Oc3cc2cc(c3OC2OC(CO)C(O)C(O)C2OC2CC(C)(NCc3ccc(-c4ccccc4)cc3F)C(O)C(C)O2)Oc2ccc(cc2Cl)C1O (centres unmarked) [Compound 206] | 1 (≈ 0.563 µM) | 1 (≈ 0.563 µM) | ≤ 0.06 | ≤ 0.06 | 0.5 (≈ 0.281 µM) | 0.5 (≈ 0.281 µM) | 1 (≈ 0.563 µM) | ≤ 0.06 | 0.5 (≈ 0.281 µM) | 0.5 (≈ 0.281 µM) | 0.5 (≈ 0.281 µM) | ≤ 0.06 | 0.25 (≈ 0.141 µM) | 1 (≈ 0.563 µM) | 0.25 (≈ 0.141 µM) | 0.5 (≈ 0.281 µM) | 1 (≈ 0.563 µM) | 1.7 | 0.095 | ≤ 0.06 | MIC [8]: ≤ 0.06 µg/mL
CNC(CC(C)C)C(=O)NC1C(=O)NC(CC(N)=O)C(=O)NC2C(=O)NC3C(=O)NC(C(=O)NC(C(=O)O)c4cc(O)cc(O)c4-c4cc3ccc4O)C(OC3CC(C)(N)C(O)C(C)O3)c3ccc(c(Cl)c3)Oc3cc2cc(c3OC2OC(CO)C(O)C(O)C2OC2CC(C)(NCc3ccc(-c4ccc([N+](=O)[O-])cc4)c([N+](=O)[O-])c3)C(O)C(C)O2)Oc2ccc(cc2Cl)C1O (centres unmarked) [Compound 212] | ≤ 0.06 | ≤ 0.06 | ≤ 0.06 | ≤ 0.06 | ≤ 0.06 | – | ≤ 0.06 | ≤ 0.06 | ≤ 0.06 | ≤ 0.06 | ≤ 0.06 | ≤ 0.06 | ≤ 0.06 | 1 (≈ 0.541 µM) | ≤ 0.06 | 1 (≈ 0.541 µM) | 1 (≈ 0.541 µM) | 0.50 | 0.036 | ≤ 0.06 | MIC [8]: ≤ 0.06 µg/mL
